The values that follow come from US12384797B2, “Thioeno[3,2-b] pyridin-7-amine compounds for treating familial dysautonomia” (PTC THERAPEUTICS, INC., priority 2019, dated 2025).

The test system of this assay is Elongator complex protein 1 (ELP1, also referred to as IKBKAP). Kind of assay: IKBKAP-HTRF assay (IKBKAP protein in lysates of FD patient-derived fibroblasts). The assay is classed as cell-based, human. The following applies: 48 hours incubation, 7-point concentration curve. How it is done:
The assay is used for the quantitative determination of Elongator complex protein 1 (ELP1, also referred to as IKBKAP) concentration in cell lysates using the HTRF® (Homogeneous Time-Resolved Fluorescence) technology. IKBKAP is detected in a sandwich HTRF assay by use of an anti-IKAP antibody labeled with a donor and an anti-IKAP antibody labeled with an acceptor.
Cells were thawed and incubated in DMEM-10% FBS for 72 hours. Cells were trypsinized, counted, and re-suspended to a concentration of 50,000 cells/mL in DMEM-10% FBS. A 199 μL aliquot of the cell suspensions were plated at 10,000 cells per well in a 96 well microtiter plate and incubated for 3 to 5 hours. […] Test compounds were serially diluted 3.16-fold in 100% DMSO to generate a 7-point concentration curve. A 1 μL aliquot of 200× compound solution was transferred to cell-containing wells, and cells were incubated for 48 hours in a cell culture incubator (37° C., 5% CO2, 100% relative humidity). Triplicate samples were set up for each compound concentration. After 48 hours, the supernatant was removed from the cells and 50 μL of the 1×LB4 lysis buffer, containing protease inhibitors, was added to the cells and incubated with shaking at room temperature for 1 hour. A 36 μL aliquot of this lysate was subsequently transferred to the 384-well plate containing 4 μL of the antibody solution (1:50 dilution of anti IKAP d2 and anti-IKAP K(9+8) in detection buffer). The 384-well plate was then centrifuged for 1 minute to bring the solutions to the bottom of the plate and incubated overnight at 4° C. Fluorescence for each well of the plate at 665 nm and 620 nm was measured was on the EnVision plate reader (Perkin Elmer). The ΔF for each sample is calculated by:
[formula] wherein Signal is the normalized fluorescence for each sample well and Blank is the average normalized average fluorescence for the Blank control wells.
The maximum fold increase (MFI) in IKBKAP protein abundance for compounds of Formula (I) or a form thereof relative to the vehicle control are provided in Table 1. MFI was calculated by dividing the ΔF value for each sample well by the sample ΔF for the vehicle control wells.
The EC2x for IKBKAP protein expression obtained from the 7-point concentration curve generated for each test compound according to the protocol in Biological Example 1 are also provided in Table 1. The term “EC2x for IKBKAP protein expression” is defined as the concentration of test compound that is effective in producing two times the amount of IKBKAP protein in a FD patient cell compared to the amount produced from the DMSO vehicle control.
Regarding `Cc1c(C[C@@H](N)C(=O)Nc2cccc(Cl)c2)sc2c(NCc3ccco3)cc(Cl)nc12` [Compound 143, 3-(5-chloro-7-{[(furan-2-yl)methyl]amino}-3-methylthieno[3,2-b]pyridin-2-yl)-N-(3-chlorophenyl)-D-alaninamide], the “EC2x for IKBKAP protein expression (concentration producing two times the amount of IKBKAP protein vs DMSO vehicle control)” value was “*** (between >0.02 μM and ≤0.5 μM is indicated by three stars (***))”; the “MFI (maximum fold increase in IKBKAP protein abundance relative to the vehicle control)” value is recorded as “***** (>4.9 is indicated by five stars (*****))”.
`Cc1c(C[C@@H](N)CCF)sc2c(NCc3nccs3)cc(Cl)nc12` [Compound 99, 2-[(2S)-2-amino-4-fluorobutyl]-5-chloro-3-methyl-N-[(1,3-thiazol-2-yl)methyl]thieno[3,2-b]pyridin-7-amine]: the “EC2x for IKBKAP protein expression (concentration producing two times the amount of IKBKAP protein vs DMSO vehicle control)” value was “***** (≤0.005 μM is indicated by five stars (*****))” and the “MFI (maximum fold increase in IKBKAP protein abundance relative to the vehicle control)” value was “***** (>4.9 is indicated by five stars (*****))”.
The matching figures for `N[C@@H](CCF)Cc1sc2c(NCc3cccs3)cc(Cl)nc2c1Cl` [Compound 98, 2-[(2S)-2-amino-4-fluorobutyl]-3,5-dichloro-N-[(thiophen-2-yl)methyl]thieno[3,2-b]pyridin-7-amine]: “***** (≤0.005 μM is indicated by five stars (*****))” and “***** (>4.9 is indicated by five stars (*****))”.
Regarding `C[C@H](N)Cc1sc2c(NCc3ccco3)cc(Cl)nc2c1Br` [Compound 37, 2-[(2S)-2-aminopropyl]-3-bromo-5-chloro-N-[(furan-2-yl)methyl]thieno[3,2-b]pyridin-7-amine], the “EC2x for IKBKAP protein expression (concentration producing two times the amount of IKBKAP protein vs DMSO vehicle control)” value is recorded as “***** (≤0.005 μM is indicated by five stars (*****))” and the “MFI (maximum fold increase in IKBKAP protein abundance relative to the vehicle control)” value was “***** (>4.9 is indicated by five stars (*****))”.
With `C[C@H](N)C(F)c1sc2c(NCc3cccs3)cc(Cl)nc2c1Cl` (stereo partly drawn) [Compound 130, 2-[(2S)-2-amino-1-fluoropropyl]-3,5-dichloro-N-[(thiophen-2-yl)methyl]thieno[3,2-b]pyridin-7-amine], the “EC2x for IKBKAP protein expression (concentration producing two times the amount of IKBKAP protein vs DMSO vehicle control)” value is “***** (≤0.005 μM is indicated by five stars (*****))” and the “MFI (maximum fold increase in IKBKAP protein abundance relative to the vehicle control)” value is given as “***** (>4.9 is indicated by five stars (*****))”.
On the same counts, the results for `C[C@H](N)Cc1sc2c(NCc3nccs3)cc(Cl)nc2c1Cl` [Compound 38, 2-[(2S)-2-aminopropyl]-3,5-dichloro-N-[(1,3-thiazol-2-yl)methyl]thieno[3,2-b]pyridin-7-amine] are “***** (≤0.005 μM is indicated by five stars (*****))” and “***** (>4.9 is indicated by five stars (*****))”.
Turning to `CSC[C@H](N)Cc1sc2c(NCc3ccco3)cc(Cl)nc2c1Br` [Compound 118, 2-[(2R)-2-amino-3-(methylsulfanyl)propyl]-3-bromo-5-chloro-N-[(furan-2-yl)methyl]thieno[3,2-b]pyridin-7-amine], the “EC2x for IKBKAP protein expression (concentration producing two times the amount of IKBKAP protein vs DMSO vehicle control)” value is recorded as “***** (≤0.005 μM is indicated by five stars (*****))” and the “MFI (maximum fold increase in IKBKAP protein abundance relative to the vehicle control)” value is reported as “***** (>4.9 is indicated by five stars (*****))”.
In the case of `N[C@H](Cc1sc2c(NCc3ccco3)cc(Cl)nc2c1Cl)C(=O)Nc1ccccc1F` [Compound 124, 3-(3,5-dichloro-7-{[(furan-2-yl)methyl]amino}thieno[3,2-b]pyridin-2-yl)-N-(2-fluorophenyl)-D-alaninamide], the “EC2x for IKBKAP protein expression (concentration producing two times the amount of IKBKAP protein vs DMSO vehicle control)” value is “**** (between >0.005 μM and ≤0.02 μM is indicated by four stars (****))”; the “MFI (maximum fold increase in IKBKAP protein abundance relative to the vehicle control)” value was “***** (>4.9 is indicated by five stars (*****))”.
As for `Clc1cc(NCc2ccco2)c2scc(Br)c2n1` [Compound 7, 3-bromo-5-chloro-N-[(furan-2-yl)methyl]thieno[3,2-b]pyridin-7-amine], the “EC2x for IKBKAP protein expression (concentration producing two times the amount of IKBKAP protein vs DMSO vehicle control)” value is “*** (between >0.02 μM and ≤0.5 μM is indicated by three stars (***))”; the “MFI (maximum fold increase in IKBKAP protein abundance relative to the vehicle control)” value was “***** (>4.9 is indicated by five stars (*****))”.
On to `C[C@H](N)Cc1sc2c(NCc3ccco3)cc(C#N)nc2c1Br` [Compound 49, 2-[(2S)-2-aminopropyl]-3-bromo-7-{[(furan-2-yl)methyl]amino}thieno[3,2-b]pyridine-5-carbonitrile], for which the “EC2x for IKBKAP protein expression (concentration producing two times the amount of IKBKAP protein vs DMSO vehicle control)” value was “***** (≤0.005 μM is indicated by five stars (*****))” and the “MFI (maximum fold increase in IKBKAP protein abundance relative to the vehicle control)” value is “***** (>4.9 is indicated by five stars (*****))”.
Turning to `Cc1c(C[C@@H](N)C(=O)O)sc2c(NCc3ccco3)cc(Cl)nc12` [Compound 115, 3-(5-chloro-7-{[(furan-2-yl)methyl]amino}-3-methylthieno[3,2-b]pyridin-2-yl)-D-alanine], the “EC2x for IKBKAP protein expression (concentration producing two times the amount of IKBKAP protein vs DMSO vehicle control)” value is given as “***** (≤0.005 μM is indicated by five stars (*****))” and the “MFI (maximum fold increase in IKBKAP protein abundance relative to the vehicle control)” value is on record as “***** (>4.9 is indicated by five stars (*****))”.
With `C[C@H](N)Cc1sc2c(NCc3ccco3)cc(Cl)nc2c1C#N` [Compound 109, 2-[(2S)-2-aminopropyl]-5-chloro-7-{[(furan-2-yl)methyl]amino}thieno[3,2-b]pyridine-3-carbonitrile], the “EC2x for IKBKAP protein expression (concentration producing two times the amount of IKBKAP protein vs DMSO vehicle control)” value is “***** (≤0.005 μM is indicated by five stars (*****))” and the “MFI (maximum fold increase in IKBKAP protein abundance relative to the vehicle control)” value is “***** (>4.9 is indicated by five stars (*****))”.
As for `N[C@@H](CCF)Cc1sc2c(NCc3nccs3)cc(Cl)nc2c1Cl` [Compound 47, 2-[(2S)-2-amino-4-fluorobutyl]-3,5-dichloro-N-[(1,3-thiazol-2-yl)methyl]thieno[3,2-b]pyridin-7-amine], the “EC2x for IKBKAP protein expression (concentration producing two times the amount of IKBKAP protein vs DMSO vehicle control)” value was “***** (≤0.005 μM is indicated by five stars (*****))” and the “MFI (maximum fold increase in IKBKAP protein abundance relative to the vehicle control)” value is recorded as “***** (>4.9 is indicated by five stars (*****))”.
On to `Cc1c(C[C@@H](N)C(=O)Nc2cnccn2)sc2c(NCc3ccco3)cc(Cl)nc12` [Compound 135, 3-(5-chloro-7-{[(furan-2-yl)methyl]amino}-3-methylthieno[3,2-b]pyridin-2-yl)-N-pyrazin-2-yl-D-alaninamide], for which the “EC2x for IKBKAP protein expression (concentration producing two times the amount of IKBKAP protein vs DMSO vehicle control)” value is “***** (≤0.005 μM is indicated by five stars (*****))”; the “MFI (maximum fold increase in IKBKAP protein abundance relative to the vehicle control)” value was “**** (between >3.9 and ≤4.9 is indicated by four stars (****))”.
Take `CC(C)C[C@H](N)Cc1sc2c(NCc3nccs3)cc(Cl)nc2c1Cl` [Compound 79, 2-[(2S)-2-amino-4-methylpentyl]-3,5-dichloro-N-[(1,3-thiazol-2-yl)methyl]thieno[3,2-b]pyridin-7-amine]: the “EC2x for IKBKAP protein expression (concentration producing two times the amount of IKBKAP protein vs DMSO vehicle control)” value is given as “***** (≤0.005 μM is indicated by five stars (*****))” and the “MFI (maximum fold increase in IKBKAP protein abundance relative to the vehicle control)” value is reported as “***** (>4.9 is indicated by five stars (*****))”.
For `C[C@@H](O)[C@H](N)Cc1sc2c(NCc3ccco3)cc(Cl)nc2c1Br` [Compound 165, (2R,3R)-3-amino-4-(3-bromo-5-chloro-7-{[(furan-2-yl)methyl]amino}thieno[3,2-b]pyridin-2-yl)butan-2-ol], the “EC2x for IKBKAP protein expression (concentration producing two times the amount of IKBKAP protein vs DMSO vehicle control)” value is “***** (≤0.005 μM is indicated by five stars (*****))” and the “MFI (maximum fold increase in IKBKAP protein abundance relative to the vehicle control)” value is “***** (>4.9 is indicated by five stars (*****))”.
On to `COc1c(C[C@H](C)N)sc2c(NCc3ccco3)cc(Cl)nc12` [Compound 136, 2-[(2S)-2-aminopropyl]-5-chloro-N-[(furan-2-yl)methyl]-3-methoxythieno[3,2-b]pyridin-7-amine], for which the “EC2x for IKBKAP protein expression (concentration producing two times the amount of IKBKAP protein vs DMSO vehicle control)” value is “***** (≤0.005 μM is indicated by five stars (*****))” and the “MFI (maximum fold increase in IKBKAP protein abundance relative to the vehicle control)” value is “***** (>4.9 is indicated by five stars (*****))”.
